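Interpolation was linear, between the two tested concentrations surrounding the appropriate level; five concentrations were tested over 48 hours in 96-well plates. GI50: concentration for 50% inhibition of growth.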 Active and inactive are the calls of the source. Cut-off read from the data, not from the text of the source: active = GI50 up to about 1.1 µM and inactive = higher.
Experiments:
Experiment in all cases: growth of human tumour cells (NCI), 48 h
ACHN = system: ACHN
COLO 205 = system: COLO 205
EKVX = system: EKVX
HCT-15 = system: HCT-15
HL-60 = system: HL-60
HOP-62 = system: HOP-62
IGROV-1 = system: IGROV-1
MCF7 = system: MCF7
MOLT-4 = system: MOLT-4
NCI/ADR-RES = system: NCI/ADR-RES
OVCAR-8 = system: OVCAR-8
RPMI-8226 = system: RPMI-8226
SF-295 = system: SF-295
SK-MEL-2 = system: SK-MEL-2
SK-OV-3 = system: SK-OV-3
SNB-75 = system: SNB-75
SR = system: SR
SW-620 = system: SW-620
TK-10 = system: TK-10
U-251 = system: U-251

Row | SMILES | GI50 (ACHN) | GI50 (COLO 205) | GI50 (EKVX) | GI50 (HCT-15) [µM] | GI50 (HL-60) | GI50 (HOP-62) | GI50 (IGROV-1) | GI50 (MCF7) | GI50 (MOLT-4) | GI50 (NCI/ADR-RES) | GI50 (OVCAR-8) | GI50 (RPMI-8226) | GI50 (SF-295) | GI50 (SK-MEL-2) | GI50 (SK-OV-3) | GI50 (SNB-75) | GI50 (SR) | GI50 (SW-620) | GI50 (TK-10) | GI50 (U-251)
1 | CCOC(=O)C(O)(NC(=O)c1ccccc1F)C(F)(F)F (stereo not drawn) | > 100 µM (inactive) | > 100 µM (inactive) | > 100 µM (inactive) | > 100 | > 100 µM (inactive) | > 100 µM (inactive) | 84.5 µM (inactive) | > 100 µM (inactive) | > 100 µM (inactive) | > 100 µM (inactive) | > 100 µM (inactive) | > 100 µM (inactive) | > 100 µM (inactive) | > 100 µM (inactive) | > 100 µM (inactive) | > 100 µM (inactive) | > 100 µM (inactive) | > 100 µM (inactive) | > 100 µM (inactive) | > 100 µM (inactive)
2 | CCOC(=O)C1=NN(c2ccc(C)cc2)C2=CC(C)=NN(C)C(=S)N21 | 43.5 µM (inactive) | > 100 µM (inactive) | 81.1 µM (inactive) | > 100 | > 100 µM (inactive) | – | > 100 µM (inactive) | > 10 µM (inactive) | > 100 µM (inactive) | > 100 µM (inactive) | 42.9 µM (inactive) | > 100 µM (inactive) | > 100 µM (inactive) | > 100 µM (inactive) | 70.3 µM (inactive) | 23.1 µM (inactive) | > 100 µM (inactive) | 54.2 µM (inactive) | 36.1 µM (inactive) | 38.5 µM (inactive)
3 | O=C1c2cc3c(cc2CC1Cc1ccc2c(c1)CCC2)CCC3 (stereo not drawn) | 48.4 µM (inactive) | 25 µM (inactive) | > 100 µM (inactive) | 47.5 | 66.2 µM (inactive) | 72.4 µM (inactive) | 31.6 µM (inactive) | 93.1 µM (inactive) | 36.6 µM (inactive) | 65.3 µM (inactive) | 81.7 µM (inactive) | 40.5 µM (inactive) | 23.5 µM (inactive) | 48.8 µM (inactive) | 85.1 µM (inactive) | 13.4 µM (inactive) | 29.9 µM (inactive) | 45.5 µM (inactive) | > 100 µM (inactive) | 37.3 µM (inactive)
4 | COc1ccc(C(=O)C2CC3(CCC2(O)c2ccc(OC)cc2)CC(=O)Nc2ccccc2C3=O)cc1 (stereo not drawn) | – | 11.7 µM (inactive) | > 100 µM (inactive) | 5.85 | 5.08 µM (inactive) | > 100 µM (inactive) | > 100 µM (inactive) | 3.03 µM (inactive) | – | > 100 µM (inactive) | > 100 µM (inactive) | – | > 100 µM (inactive) | > 100 µM (inactive) | > 100 µM (inactive) | 4.4 µM (inactive) | > 100 µM (inactive) | > 100 µM (inactive) | > 100 µM (inactive) | 63.7 µM (inactive)
5 | Oc1nc2ccccc2c2oc3ccccc3c12 | > 100 µM (inactive) | > 100 µM (inactive) | 2.9 µM (inactive) | > 100 | – | 88.9 µM (inactive) | > 100 µM (inactive) | > 100 µM (inactive) | > 100 µM (inactive) | > 100 µM (inactive) | > 100 µM (inactive) | – | > 100 µM (inactive) | – | 76 µM (inactive) | 6.81 µM (inactive) | > 100 µM (inactive) | > 100 µM (inactive) | > 100 µM (inactive) | > 100 µM (inactive)

Source: ChEMBL document CHEMBL1201862, “PubChem BioAssay data set” (2004)
